In US8415469B2, “Compounds and methods for kinase modulation, and indications therefor” (Plexxikon Inc., priority 2005, dated 2013):

Tests used:
Assay type in all cases: biochemical
[1] = target: T1, Ret (Homo sapiens, UniProt P07949); experiment: AlphaScreen kinase assay, Ret; details: read-out: IC50, activity toward kinase Ret
T1 construct: P1378.pET-SF BI-PTP RET H661-R1012 HIS; made in house
T1 sequence (P07949 with tags, fused parts or gaps): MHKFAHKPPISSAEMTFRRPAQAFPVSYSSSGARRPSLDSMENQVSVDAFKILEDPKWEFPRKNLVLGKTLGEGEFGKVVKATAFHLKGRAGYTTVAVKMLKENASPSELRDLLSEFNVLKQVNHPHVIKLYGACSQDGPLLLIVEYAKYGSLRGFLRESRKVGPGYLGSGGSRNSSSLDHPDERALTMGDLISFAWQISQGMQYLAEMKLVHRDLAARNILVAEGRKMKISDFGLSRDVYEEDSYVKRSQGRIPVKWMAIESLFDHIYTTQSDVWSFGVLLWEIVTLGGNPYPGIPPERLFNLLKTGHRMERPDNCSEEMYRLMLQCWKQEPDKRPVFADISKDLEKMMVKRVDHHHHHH

[2] = target: T2, Yes (Homo sapiens, UniProt P07947); experiment: Z'-Lyte FRET kinase assay (Invitrogen), Yes; details: read-out: IC50, activity toward kinase Yes
T2 construct: purchased Invitrogen (Carlsbad, Calif.), screening service
T2 sequence (P07947 whole entry): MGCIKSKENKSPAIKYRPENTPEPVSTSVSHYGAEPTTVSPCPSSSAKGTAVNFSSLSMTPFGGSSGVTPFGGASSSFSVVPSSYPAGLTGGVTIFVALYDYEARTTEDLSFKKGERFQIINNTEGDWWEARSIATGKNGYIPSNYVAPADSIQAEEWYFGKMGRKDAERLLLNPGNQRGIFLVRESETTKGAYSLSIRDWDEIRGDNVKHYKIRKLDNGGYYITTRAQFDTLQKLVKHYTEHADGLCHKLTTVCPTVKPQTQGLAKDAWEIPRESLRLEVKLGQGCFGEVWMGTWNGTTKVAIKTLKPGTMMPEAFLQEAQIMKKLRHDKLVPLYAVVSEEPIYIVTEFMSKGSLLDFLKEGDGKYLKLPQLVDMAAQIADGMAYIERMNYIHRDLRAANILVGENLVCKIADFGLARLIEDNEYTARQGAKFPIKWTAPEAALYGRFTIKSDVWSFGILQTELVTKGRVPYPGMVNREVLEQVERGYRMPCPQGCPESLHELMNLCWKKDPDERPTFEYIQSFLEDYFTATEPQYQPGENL
How it was run: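 Each kinase phosphorylated a FRET peptide (2 μM) at 10 μM ATP in 50 mM HEPES pH 7.5, 50 mM MgCl2, 5 mM EGTA, 0.05% BRIJ-35 with 1% DMSO, 1 h at room temperature. After a 1 h protease development step, coumarin/fluorescein emission ratio was read across serial compound dilutions.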

[3] = target: T3, FGFR1 (Homo sapiens, UniProt P11362, C488A/C584S); experiment: AlphaScreen kinase assay, FGFR1; details: read-out: IC50, activity toward kinase FGFR
T3 construct: P1351.pET N6 BI-PTP FGFR A458-E765-X C488A, C584S; made in house; host or cells: E. coli (PTP1B co-expressed)
T3 sequence (P11362 458-765 C488A/C584S): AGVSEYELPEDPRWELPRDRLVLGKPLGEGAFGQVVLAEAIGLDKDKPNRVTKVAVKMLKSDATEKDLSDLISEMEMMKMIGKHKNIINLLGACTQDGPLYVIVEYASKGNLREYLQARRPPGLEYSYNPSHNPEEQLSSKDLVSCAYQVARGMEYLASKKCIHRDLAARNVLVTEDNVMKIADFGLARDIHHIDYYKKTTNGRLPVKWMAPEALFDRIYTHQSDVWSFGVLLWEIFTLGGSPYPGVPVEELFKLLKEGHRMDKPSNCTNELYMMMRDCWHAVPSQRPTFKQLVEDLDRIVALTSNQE

[4] = target: T4, B-Raf V600E (Homo sapiens, UniProt P15056, V600E); experiment: AlphaScreen kinase assay, B-Raf V600E; details: read-out: IC50, activity toward kinase B-Raf V600E
T4 construct: P4254. pFastBacBD-CDC37 BRAF D437-K722-X, V600E; His6 with pFastBac HT leader (TEV site) (N); made in house; host or cells: Sf9 (baculovirus; chaperone CDC37 co-expressed)
T4 sequence (P15056 with tags, fused parts or gaps V600E): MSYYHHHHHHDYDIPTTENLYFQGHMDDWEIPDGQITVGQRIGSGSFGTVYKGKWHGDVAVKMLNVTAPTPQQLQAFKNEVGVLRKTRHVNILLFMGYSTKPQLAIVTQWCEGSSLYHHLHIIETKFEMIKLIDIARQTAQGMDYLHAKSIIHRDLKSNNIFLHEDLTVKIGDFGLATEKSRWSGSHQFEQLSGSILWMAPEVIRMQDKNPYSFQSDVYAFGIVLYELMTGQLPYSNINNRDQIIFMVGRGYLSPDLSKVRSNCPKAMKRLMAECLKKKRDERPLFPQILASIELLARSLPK

[5] = target: T5, Kdr (Homo sapiens, UniProt P35968); experiment: Z'-Lyte FRET kinase assay (Invitrogen), Kdr; details: read-out: IC50, activity toward kinase Kdr
T5 construct: purchased Invitrogen (assay run by Invitrogen)
T5 sequence (P35968 20-1356): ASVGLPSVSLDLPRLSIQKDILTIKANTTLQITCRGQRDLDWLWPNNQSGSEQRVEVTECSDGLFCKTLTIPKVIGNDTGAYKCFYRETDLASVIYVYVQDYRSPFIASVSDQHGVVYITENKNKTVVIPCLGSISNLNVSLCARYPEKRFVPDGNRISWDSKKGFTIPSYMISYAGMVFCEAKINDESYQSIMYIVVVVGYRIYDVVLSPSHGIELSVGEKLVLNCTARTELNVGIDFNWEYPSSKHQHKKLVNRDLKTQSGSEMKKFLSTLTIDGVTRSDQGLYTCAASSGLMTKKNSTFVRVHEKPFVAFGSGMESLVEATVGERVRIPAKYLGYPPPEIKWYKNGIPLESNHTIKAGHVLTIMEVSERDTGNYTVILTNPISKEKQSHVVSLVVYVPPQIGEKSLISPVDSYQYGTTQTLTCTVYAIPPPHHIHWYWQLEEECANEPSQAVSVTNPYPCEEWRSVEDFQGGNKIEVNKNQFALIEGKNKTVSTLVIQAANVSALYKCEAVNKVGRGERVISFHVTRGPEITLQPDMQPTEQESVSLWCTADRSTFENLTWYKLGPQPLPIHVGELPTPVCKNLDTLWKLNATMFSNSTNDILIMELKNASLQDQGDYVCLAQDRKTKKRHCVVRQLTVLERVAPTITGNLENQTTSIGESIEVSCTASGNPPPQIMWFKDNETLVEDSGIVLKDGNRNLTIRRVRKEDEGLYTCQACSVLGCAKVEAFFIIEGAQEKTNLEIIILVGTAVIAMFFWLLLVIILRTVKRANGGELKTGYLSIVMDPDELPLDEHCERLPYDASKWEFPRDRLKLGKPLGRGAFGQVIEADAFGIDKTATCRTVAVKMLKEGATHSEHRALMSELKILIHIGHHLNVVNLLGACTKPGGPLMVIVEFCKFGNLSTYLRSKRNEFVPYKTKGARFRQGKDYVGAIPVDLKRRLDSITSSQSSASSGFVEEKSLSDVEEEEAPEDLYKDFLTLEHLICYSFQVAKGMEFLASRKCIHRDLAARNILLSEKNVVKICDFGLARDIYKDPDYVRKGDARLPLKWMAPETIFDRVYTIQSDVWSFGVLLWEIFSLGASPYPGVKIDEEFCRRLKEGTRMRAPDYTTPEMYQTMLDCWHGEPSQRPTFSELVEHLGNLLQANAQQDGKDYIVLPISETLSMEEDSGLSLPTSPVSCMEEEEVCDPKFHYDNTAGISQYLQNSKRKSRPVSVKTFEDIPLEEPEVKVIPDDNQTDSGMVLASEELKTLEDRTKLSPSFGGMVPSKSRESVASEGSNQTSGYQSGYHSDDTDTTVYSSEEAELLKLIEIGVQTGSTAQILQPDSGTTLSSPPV

[6] = target: T6, Fms (Homo sapiens, UniProt P07333); experiment: AlphaScreen kinase assay, Fms; details: read-out: IC50, activity toward kinase Fms
T6 construct: purchased Upstate Biotechnology
T6 sequence (P07333 20-972): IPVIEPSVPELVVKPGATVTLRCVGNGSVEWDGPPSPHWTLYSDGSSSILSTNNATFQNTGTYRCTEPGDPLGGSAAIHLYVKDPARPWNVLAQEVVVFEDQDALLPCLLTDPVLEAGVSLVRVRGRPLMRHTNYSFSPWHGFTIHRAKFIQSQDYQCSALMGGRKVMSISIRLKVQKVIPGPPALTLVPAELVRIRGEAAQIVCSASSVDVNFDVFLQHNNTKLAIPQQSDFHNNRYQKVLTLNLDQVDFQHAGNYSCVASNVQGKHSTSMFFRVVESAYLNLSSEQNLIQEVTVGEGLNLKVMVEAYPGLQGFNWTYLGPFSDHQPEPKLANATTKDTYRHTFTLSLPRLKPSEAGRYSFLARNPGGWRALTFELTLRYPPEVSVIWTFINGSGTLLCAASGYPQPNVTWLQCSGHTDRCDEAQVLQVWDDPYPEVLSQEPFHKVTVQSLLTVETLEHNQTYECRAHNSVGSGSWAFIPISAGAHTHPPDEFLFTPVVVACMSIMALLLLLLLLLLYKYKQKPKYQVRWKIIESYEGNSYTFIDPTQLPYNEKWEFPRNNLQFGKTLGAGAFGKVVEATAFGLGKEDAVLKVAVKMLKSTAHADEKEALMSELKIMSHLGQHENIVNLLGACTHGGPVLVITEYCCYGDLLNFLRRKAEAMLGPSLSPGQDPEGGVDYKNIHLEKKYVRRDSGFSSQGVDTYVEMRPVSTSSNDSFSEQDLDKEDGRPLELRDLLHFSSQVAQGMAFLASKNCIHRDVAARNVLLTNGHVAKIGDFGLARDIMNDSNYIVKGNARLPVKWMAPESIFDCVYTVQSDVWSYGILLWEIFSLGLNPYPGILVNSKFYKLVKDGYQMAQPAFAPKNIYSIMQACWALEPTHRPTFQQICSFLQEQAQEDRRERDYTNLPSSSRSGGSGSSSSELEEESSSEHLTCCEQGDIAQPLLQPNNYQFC

[7] = target: T7, Kit (Homo sapiens, UniProt P10721); experiment: AlphaScreen kinase assay, Kit; details: read-out: IC50, activity toward kinase Kit
T7 construct: P1332.N6 BI PTP KIT M552-K948-X COD; His6 (N); made in house; host or cells: E. coli (PTP1B co-expressed)
T7 sequence (P10721 with tags, fused parts or gaps): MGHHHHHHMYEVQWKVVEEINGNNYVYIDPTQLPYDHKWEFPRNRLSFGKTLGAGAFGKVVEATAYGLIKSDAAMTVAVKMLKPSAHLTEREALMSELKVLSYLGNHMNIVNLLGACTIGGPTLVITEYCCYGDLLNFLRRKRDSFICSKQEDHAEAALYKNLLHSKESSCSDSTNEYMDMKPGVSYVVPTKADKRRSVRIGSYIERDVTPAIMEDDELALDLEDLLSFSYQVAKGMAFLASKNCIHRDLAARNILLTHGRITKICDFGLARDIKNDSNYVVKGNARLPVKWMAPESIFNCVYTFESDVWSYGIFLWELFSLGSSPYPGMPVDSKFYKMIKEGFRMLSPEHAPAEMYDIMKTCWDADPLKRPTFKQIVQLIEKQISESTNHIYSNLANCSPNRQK

Compound	IC50 [1] [µM]	IC50 [2] [µM]	IC50 [3] [µM]	IC50 [4] [µM]	IC50 [5] [µM]	IC50 [6] [µM]	IC50 [7] [µM]
CCCS(=O)(=O)Nc1ccc(F)c(C(=O)c2c[nH]c3ncc(-c4ccccc4)cc23)c1F [Compound P-0636, Propane-1-sulfonic acid [2,4-difluoro-3-(5-phenyl-1H-pyrrolo[2,3-b]pyridine-3-carbonyl)-phenyl]-amide]	≤ 10	≤ 10	≤ 10	≤ 10	–	≤ 10	≤ 10
NC(=O)c1cccc(-c2ccnc3[nH]cc(C(=O)c4cc(F)ccc4F)c23)c1 [Compound P-0049]	≤ 10	≤ 10	–	≤ 10	≤ 10	–	–
NC(=O)c1ccc(-c2ccnc3[nH]cc(C(=O)c4ccccc4F)c23)cc1 [Compound P-0014]	≤ 10	≤ 10	–	≤ 10	≤ 10	–	–
CS(=O)(=O)c1cccc(-c2ccnc3[nH]cc(C(=O)c4cc(F)ccc4F)c23)c1 [Compound P-0171]	≤ 10	≤ 10	≤ 10	≤ 10	–	–	≤ 10
Cc1ccccc1C(=O)c1c[nH]c2nccc(-c3cccc(NS(C)(=O)=O)c3)c12 [Compound P-0109]	≤ 10	≤ 10	–	≤ 10	–	–	–
Nc1cccc(-c2ccnc3[nH]cc(C(=O)c4ccccc4F)c23)c1 [Compound P-0022]	≤ 10	≤ 10	–	≤ 10	≤ 10	–	–
Cc1ccc(F)cc1C(=O)c1c[nH]c2nccc(-c3cccc(NS(C)(=O)=O)c3)c12 [Compound P-0124]	≤ 10	≤ 10	–	≤ 10	–	–	–
Nc1cccc(-c2ccnc3[nH]cc(C(=O)c4cc(F)ccc4F)c23)c1 [Compound P-0046]	≤ 10	≤ 10	–	≤ 10	≤ 10	–	–
Oc1cc(O)cc(Cc2c[nH]c3ncc(-c4ccsc4)cc23)c1 [Compound P-0093]	–	≤ 10	≤ 10	≤ 10	≤ 10	≤ 10	≤ 10
O=C(O)/C=C/c1cccc(-c2cnc3[nH]cc(C(=O)c4cc(O)ccc4F)c3c2)c1 [Compound P-0010]	≤ 10	≤ 10	≤ 10	≤ 10	–	≤ 10	–
O=C(c1cccc(O)c1)c1c[nH]c2ncc(-c3cccs3)cc12 [Compound P-0196]	≤ 10	–	≤ 10	≤ 10	≤ 10	≤ 10	≤ 10
Cc1c(O)cccc1C(=O)c1c[nH]c2ncc(-c3cccs3)cc12 [Compound P-0114, (3-Hydroxy-2-methyl-phenyl)-(5-thiophen-2-yl-1H-pyrrolo[2,3b]pyridin-3-yl)-methanone]	≤ 10	–	≤ 10	≤ 10	≤ 10	≤ 10	≤ 10
Oc1ccc(F)c(C(O)c2c[nH]c3ncc(-c4cccnc4)cc23)c1F (stereo not drawn) [Compound P-0009, 2,4-difluoro-3-[hydroxy-(5-pyridin-3-yl-1H-pyrrolo[2,3-b]pyridin-3-yl)-methyl]-phenol]	≤ 10	–	≤ 10	≤ 10	≤ 10	≤ 10	≤ 10
CS(=O)(=O)Nc1cccc(-c2ccnc3[nH]cc(C(=O)c4cc(F)ccc4F)c23)c1 [Compound P-0060]	≤ 10	≤ 10	–	≤ 10	≤ 10	–	–
CC(=O)Nc1cccc(-c2ccnc3[nH]cc(C(=O)c4ccccc4F)c23)c1 [Compound P-0070]	≤ 10	≤ 10	–	≤ 10	≤ 10	–	–
O=C(c1cc(O)ccc1F)c1c[nH]c2ncc(-c3cccs3)cc12 [Compound P-0032]	≤ 10	–	≤ 10	≤ 10	≤ 10	≤ 10	≤ 10

The remaining lines, values ahead:

IC50 [1] [µM]	IC50 [2] [µM]	IC50 [3] [µM]	IC50 [4] [µM]	IC50 [5] [µM]	IC50 [6] [µM]	IC50 [7] [µM]	Compound
≤ 10	≤ 10	≤ 10	≤ 10	≤ 10	–	–	Oc1cccc(Cc2c[nH]c3ncc(-c4cccs4)cc23)c1F [Compound P-0052, 2-Fluoro-3-(5-thiophen-2-yl-1H-pyrrolo[2,3-b]pyridin-3-ylmethyl)-phenol]
–	≤ 10	≤ 10	≤ 10	≤ 10	≤ 10	–	O=C(c1cc(O)ccc1F)c1c[nH]c2ncc(Br)cc12 [Compound P-0068, (5-Bromo-1H-pyrrolo[2,3-b]pyridin-3-yl)-(2-fluoro-5-hydroxy-phenyl)-methanone]
≤ 10	≤ 10	–	≤ 10	≤ 10	–	–	O=C(c1ccccc1F)c1c[nH]c2nccc(-c3ccsc3)c12 [Compound P-0051]
≤ 10	≤ 10	≤ 10	≤ 10	≤ 10	–	–	Cc1c(O)cccc1C(=O)c1c[nH]c2ncc(Br)cc12 [Compound P-0055, (5-Bromo-1H-pyrrolo[2,3-b]pyridin-3-yl)-(3-hydroxy-2-methyl-phenyl)-methanone]
–	≤ 10	≤ 10	≤ 10	≤ 10	≤ 10	≤ 10	O=C(c1ccc(O)cc1Cl)c1c[nH]c2ncccc12 [Compound P-0021]
≤ 10	≤ 10	≤ 10	≤ 10	–	≤ 10	≤ 10	Cc1ccc(S(=O)(=O)NCc2c[nH]c3nccc(-c4cccc(C#N)c4)c23)cc1 [Compound P-0072]
–	≤ 10	≤ 10	≤ 10	≤ 10	≤ 10	≤ 10	CCCS(=O)(=O)Nc1ccc(F)c(C(=O)c2c[nH]c3ncccc23)c1F [Compound P-0007, Propane-1-sulfonic acid [2,4-difluoro-3-(1H-pyrrolo[2,3-b]pyridine-3-carbonyl)-phenyl]-amide]
–	≤ 10	≤ 10	≤ 10	≤ 10	≤ 10	≤ 10	O=C(c1cccc(O)c1F)c1c[nH]c2ncc(Br)cc12 [Compound P-0067, (5-bromo-1H-pyrrolo[2,3-b]pyridin-3-yl)-(2-fluoro-3-hydroxy-phenyl)-methanone]
≤ 10	≤ 10	–	≤ 10	≤ 10	–	–	O=C(c1cc(F)ccc1F)c1c[nH]c2nccc(-c3cccnc3)c12 [Compound P-0063]
–	≤ 10	≤ 10	≤ 10	–	≤ 10	≤ 10	CN(C)S(=O)(=O)Nc1ccc(F)c(Cc2c[nH]c3ncc(-c4cccnc4)cc23)c1F [Compound P-0166]
≤ 10	≤ 10	≤ 10	≤ 10	–	≤ 10	≤ 10	O=C(c1cccc(O)c1F)c1c[nH]c2ncc(-c3ccccc3)cc12 [Compound P-0036, (2-fluoro-3-hydroxy-phenyl)-(5-phenyl-1H-pyrrolo[2,3-b]pyridin-3-yl)-methanone]
≤ 10	≤ 10	–	≤ 10	≤ 10	–	–	Cc1ccccc1C(=O)c1c[nH]c2nccc(-c3cccc(N)c3)c12 [Compound P-0044]
